The text below walks through data of patent US8796259B2, “N3-heteroaryl substituted triazoles and N5-heteroaryl substituted triazoles useful as axl inhibitors” (Rigel Pharmaceuticals, Inc., priority 2006, dated 2014).

A word on the IC50: it is the concentration that inhibits the measured activity by half. Low values mean inhibition by little substance, high ones a need for much substance.

Molecules are shown by their SMILES.

In this test the target is T1, Axl (Homo sapiens, UniProt P30530).
T1 construct: endogenous in cells; host or cells: HeLa cells
T1 sequence (P30530 26-894): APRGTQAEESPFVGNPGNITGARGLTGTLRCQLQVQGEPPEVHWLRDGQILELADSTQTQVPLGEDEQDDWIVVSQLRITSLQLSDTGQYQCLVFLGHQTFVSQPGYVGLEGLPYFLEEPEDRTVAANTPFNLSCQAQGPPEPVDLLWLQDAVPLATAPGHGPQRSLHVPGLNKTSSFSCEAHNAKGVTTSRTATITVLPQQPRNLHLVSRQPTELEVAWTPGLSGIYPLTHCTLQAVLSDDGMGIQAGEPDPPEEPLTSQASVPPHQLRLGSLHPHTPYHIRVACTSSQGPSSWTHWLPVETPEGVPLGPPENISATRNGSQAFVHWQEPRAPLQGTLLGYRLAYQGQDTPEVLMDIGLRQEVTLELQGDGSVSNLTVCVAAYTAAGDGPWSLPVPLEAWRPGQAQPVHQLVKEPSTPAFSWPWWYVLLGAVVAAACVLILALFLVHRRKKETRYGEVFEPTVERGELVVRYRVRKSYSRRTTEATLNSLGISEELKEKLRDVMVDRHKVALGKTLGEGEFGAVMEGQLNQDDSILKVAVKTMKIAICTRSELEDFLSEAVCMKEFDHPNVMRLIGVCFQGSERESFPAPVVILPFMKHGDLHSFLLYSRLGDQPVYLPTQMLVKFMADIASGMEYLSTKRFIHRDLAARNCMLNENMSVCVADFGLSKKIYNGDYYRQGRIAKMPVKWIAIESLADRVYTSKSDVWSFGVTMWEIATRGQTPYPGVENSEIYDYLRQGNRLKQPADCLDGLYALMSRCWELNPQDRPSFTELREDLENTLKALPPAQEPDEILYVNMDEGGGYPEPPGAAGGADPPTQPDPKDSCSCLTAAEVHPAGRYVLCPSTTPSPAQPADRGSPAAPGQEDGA
Nature of the test: Phospho-Akt in-cell Western assay (inhibition of Axl activity, Axl-antibody cross-linking stimulation). As to conditions: Hela cells, phospho-Akt readout. In kind it is cell-based. The procedure:
The compounds of the invention were tested in the following assay for their ability to inhibit Axl activity.
Phospho-Akt in-Cell Western Assay
• Cell culture plate: 96 well assay plate (Corning 3610), white, clear bottom, tissue-culture treated. • Cells: Hela cells. • Starvation medium: For Axl stimulation: 0.5% FCS (fetal calf serum) in DMEM, plus Axl/Fc (extracellular domain of AXL fused to immunoglobulin Fc region) (R&D, 154-AL) 500 ng/mL. • For EGF (epidermal growth factor) stimulation: 0.5% FCS in DMEM (Dulbecco's modified Eagles medium). • Poly-L-Lysine 0.01% solution (the working solution): 10 μg/ml, dilute In PBS (phosphate buffered saline). • Axl antibody cross-linking: • 1st: Mouse anti-Axl (R&D, MAB154). • 2nd: Biotin-SP-conjugated AffiniPure goat anti-mouse IgG (H+L) (Jackson ImmunoResearch #115-065-003). • Fixing buffer: 4% formaldehyde in PBS. • Wash buffer: 0.1% TritonX-100 in PBS. • Quenching buffer: 3% H2O2, 0.1% Azide in wash buffer, Azide and hydrogen peroxide (H2O2) are added fresh. • Blocking buffer: 5% BSA in TBST (tris buffered saline plus 0.1% Tween 20). • Primary antibody: Rabbit anti-human Phospho-Akt antibody (Cell Signaling 9271): 1×250 diluted in blocking buffer. • Secondary antibody: HRP (horse radish peroxidase)-conjugated Goat anti-Rabbit secondary, stock solution: Jackson ImmunoResearch (Goat anti-Rabbit HRP, #111-035-144) 1:1 diluted in glycerol, store at −20° C. The working solution: 1×2000 dilution of stock in blocking buffer. • Chemiluminescent working solution (Pierce, 37030): SuperSignal ELISA (enzyme linked immunosorbant assay) Pico Chemiluminescent substrate. • Crystal Violet solution: Stock: 2.5% Crystal violet in methanol, filtered and kept at ambient temperature. The working solution: dilute the stock 1:20 with PBS immediately before use.
10% SDS: working solution: 5% SDS (sodium dodecylsulfate), diluted in PBS
A 96 well TC (tissue culture treated) plate was coated with 10 μg/mL poly-L-Lysine at 37° C. for 30 min, washed twice with PBS, and air-dried for 5 minutes before cells were added. Hela cells were seeded at 10,000 cells/well and the cells were starved in 100 μL starvation medium containing Axl/Fc for 24 hrs.
The cells were pre-treated with test compounds by adding 100 μL of 2× test compound to the starvation medium on the cells. The cells were incubated at 37° C. for 1 hr before stimulation.
The cells were stimulated by Axl-antibody cross-linking as follows: A 5×1st/2nd Axl antibody mixture was made (37.5 μg/mL 1st/100 μg/mL 2 nd) in starvation medium and nutated at 4° C. with thorough mixing for 1-2 hours for clustering. The resulting mix was warmed to 37° C. 50 μL of 5×Axl 1st/2nd of antibody cluster was added to the cells and the cells were incubated at 37° C. for 5 min.
After 5 minutes stimulation, the plate was flicked to remove medium and the plate was tapped onto paper towels. Formaldehyde (4.0% in PBS, 100 μL) was added to fix the cells and the cells were incubated at ambient temperature for 20 min without shaking.
The cells were washed with a plate washer buffer to remove the formaldehyde solution. The plate was flicked to removed excess wash buffer and tapped onto paper towels. Quenching buffer (100 μL) was added to each well and the cells were incubated at ambient temperature for 20 minutes without shaking.
The cells were washed with a plate washer buffer to remove the quenching buffer. Blocking buffer (100 μL) was added and the cells were incubated at ambient temperature for at least an hour with gentle shaking.
The cells were washed with a plate washer buffer and diluted primary antibody (50 μL) was added to each well (blocking buffer was added to the negative control wells instead). The plates were incubated overnight at 4° C. with gentle shaking.
The wash buffer was removed, diluted secondary antibody (100 μL) was added, and the cells were incubated at ambient temperature for 1 hour with gentle shaking. […]

Where [1] appears, read: compounds of formula (Ia), Table 1.

Consider `Cc1csc2c(-n3nc(Nc4cnc5c(c4)CC(NC4CCCC4)CC5)nc3N)nc(Cl)nc12` (stereo not shown) [compound 70, 1-(2-chloro-7-methylthieno [3,2-d]pyrimidin-4-yl)-N^3-(6-cyclopentyl-amino-5,6,7,8-tetrahydro-quinolin-3-yl)-1H-1,2,4-triazole-3,5-diamine], for which the IC50 under setting [1] was less than 1000 nM. Still for that read-out and setting: under `Cc1csc2c(-n3nc(Nc4cnc5c(c4)CC(C(=O)N4CCCC4)CC5)nc3N)nc(Cl)nc12` (stereo not shown) [compound 20, 1-(2-chloro-7-methylthieno [3,2-d]pyrimidine-4-yl)-N^3-(6-(pyrrolidin-1ylcarbonyl)-5,6,7,8-tetrahydro-quinolin-3-yl)-1H-1,2,4-triazole-3,5-diamine] stands less than 1000 nM; under `COc1cc2ncnc(-n3nc(Nc4ccc(C=CCN5CCC(N6CCCCC6)CC5)nc4)nc3N)c2cc1OC` [compound 67, 1-(6,7-dimethoxy-quinazoline-4-yl)-N^3-(6-(3-(4-piperidin-1-ylpiperidin-1-yl)propenyl)pyridin-3-yl)-1H-1,2,4-triazole-3,5-diamine], less than 1000 nM. The same measure, in the same setting: under `Cc1csc2c(-n3nc(Nc4cnc5c(c4)CN(C(=O)C4CCN(C)CC4)CC5)nc3N)ncnc12` [compound 96, 1-(7-methylthieno [3,2-d]pyrimidin-4-yl)-N^3-(6-(1-methyl-piperidin-4-yl)carbonyl-5,6,7,8-tetrahydro-1,6-naphthyridin-3-yl)-1H-1,2,4-triazole-3,5-diamine] stands less than 1000 nM. As for `Cc1csc2c(-n3nc(Nc4ccc(C=CCN5CCN(C6CCCC6)CC5)nc4)nc3N)ncnc12` [compound 125, 1-(7-methylthieno [3,2-d]pyrimidin-4-yl)-N^3-(2-(3-(4-cyclopentyl-piperazin-1-yl)propen-1-yl)pyridin-5-yl)-1H-1,2,4-triazole-3,5-diamine], under setting [1], the IC50 is less than 1000 nM. As for `Cc1cc(Nc2nc(N)nn2-c2nnc(C)c3ccsc23)cnc1N1CCN([C@H]2C[C@@H]3CC[C@H]2C3)CC1` [compound 132, 1-(4-methylthieno[2,3-d]pyridazin-7-yl)-N^5-(2-(4-(1S,2S,4R)-bicyclo[2.2.1]heptan-2-ylpiperazin-1-yl)-3-methylpyridin-5-yl)-1H-1,2,4-triazole-3,5-diamine], under “compounds of formula (Ib), Table 2”, the IC50 was greater than 20000 nM.

As to `Cc1csc2c(-n3nc(Nc4cnc5c(c4)CC(NC4CCN(C)CC4)CC5)nc3N)ncnc12` (stereo not shown) [compound 84, 1-(7-methylthieno [3,2-d]pyrimidin-4-yl)-N^3-(6-(1-methyl-piperidin-4-ylamino)-5,6,7,8-tetrahydro-quinolin-3-yl)-1H-1,2,4-triazole-3,5-diamine], the IC50 under setting [1] is less than 1000 nM. In turn, `Cc1csc2c(-n3nc(Nc4ccc(N5CCCN(C6CC7CCC6C7)CC5)nc4)nc3N)nc(Cl)nc12` (stereo not shown) [compound 46, 1-(2-chloro-7-methylthieno [3,2-d]pyrimidin-4-yl)-N^3-(6-(4-(bicyclo[2.2.1]heptan-2-yl)-1,4-diazepan-1-yl)pyridin-3-yl)-1H-1,2,4-triazole-3,5-diamine] displayed an IC50 under setting [1] of less than 1000 nM.

As for `Cc1nc(-n2nc(Nc3cnc(N4CCC(N5CCCC5)CC4)c(C)c3)nc2N)c2ccccc2n1` [compound 55, 1-(2-methyl-quinazolin-4-yl)-N^3-(6-(4-(pyrrolidin-1-yl)piperidin-1-yl)-5-methylpyridin-3-yl)-1H-1,2,4-triazole-3,5-diamine], the IC50 under setting [1] was less than 1000 nM.

Regarding `Cc1cc(Nc2nc(N)n(-c3nc(Cl)nc4c(C)csc34)n2)cnc1N1CCN(C2CC3CCC2C3)CC1` (stereo not shown) [compound 71, 1-(2-chloro-7-methylthienò [3,2-d]pyrimidine-4-yl)-N^3-(5-methyl-6-(4-bicyclo[2.2.1]heptan-2-ylpiperazin-1-yl)pyridine-3-yl)-1H-1,2,4-triazole-3,5-diamine], the IC50 under setting [1] was less than 1000 nM. Compound `Cc1csc2c(-n3nc(Nc4ccc(N5CC6CN(C7CC8CCC7C8)CC6C5)nc4)nc3N)nc(Cl)nc12` (stereo not shown) [compound 57, 1-(2-chloro-7-methylthieno [3,2-d]pyrimidine-4-yl)-N^3-(6-(5-bicyclo[2.2.1]heptan-2-yl-octahydropyrrol [3,4-c]pyrrolyl)pyridine-3-yl)-1H-1,2,4-triazole-3,5-diamine] yielded an IC50 under setting [1] of less than 1000 nM. Same read-out and setting: under `COc1cc2ncnc(-n3nc(Nc4ccc(C=CCN5CCC(N6CCCC6)CC5)nc4)nc3N)c2cc1OC` [compound 81, 1-(6,7-dimethoxy-quinazoline-4-yl)-N^3-(6-(3-(4-pyrrolidin-1-ylpiperidin-1-yl)propenyl)pyridin-3-yl)-1H-1,2,4-triazole-3,5-diamine] stands less than 1000 nM. With `CCOC(=O)N1CCc2ncc(Nc3nc(N)n(-c4nc(Cl)nc5c(C)csc45)n3)cc2C1` [compound 19, 1-(2-chloro-7-methylthieno [3,2-d]pyrimidine-4-yl)-N^3-(6-(ethylcarboxy)-5,6,7,8-tetrahydro-1,6-naphthyridin-3-yl)-1H-1,2,4-triazole-3,5-diamine], under setting [1], the IC50 was greater than 20000 nM. Under setting [1], `Cc1cc(Nc2nc(N)n(-c3nc(Cl)nc4c(C)csc34)n2)cnc1N1CCC(N2CCCC2)CC1` [compound 41, 1-(2-chloro-7-methylthieno [3,2-d]pyrimidin-4-yl)-N^3-(6-(4-(pyrrolidin-1-yl)piperidin-1-yl)-5-methylpyridin-3-yl)-1H-1,2,4-triazole-3,5-diamine] had an IC50 of less than 1000 nM. `Cc1csc2c(-n3nc(Nc4ccc(C=CCN5CCCCC5)nc4)nc3N)ncnc12` [compound 127, 1-(7-methylthieno [3,2-d]pyrimidin-4-yl)-N^3-(2-(3-(piperidin-1-yl)propen-1-yl)pyridin-5-yl)-1H-1,2,4-triazole-3,5-diamine] yielded an IC50 under setting [1] of less than 1000 nM. Regarding `Cc1csc2c(-n3nc(Nc4cnc(N5CCN([C@H]6CC7CCC6C7)CC5)c(Cl)c4)nc3N)nc(Cl)nc12` (stereo partly drawn) [compound 109, 1-(2-chloro-7-methylthieno [3,2-d]pyrimidin-4-yl)-N^3-(2-(4-(2S)-bicyclo[2.2.1]heptan-2-ylpiperazin-1-yl)-3-chloropyridin-5-yl)-1H-1,2,4-triazole-3,5-diamine], under setting [1], the IC50 lay in the range of 1000 to 10000 nM.
